In US20220370416A1, “COMPOUNDS AND METHODS FOR TARGETED DEGRADATION OF KRAS” (Arvinas Operations, Inc., priority 2020, published 2022):

Columns and labels:
HiBit-KRAS^G12C [1] = target: T1, HiBit-KRAS^G12C (Homo sapiens, UniProt P01116, G12C); test: HiBit degradation assay in SW1573 HiBit-KRas^G12C cells; format: cell-based; set-up: expressed in transfected cells; host or cells: SW1573 (clone E6), modified pcDNA3.1 vector, TK promoter; conditions: 24 hours
In short: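 SW1573 cells stably expressing N-terminally HiBit-tagged KRAS G12C, under the TK promoter, were treated 24 h at 37 °C with 10 μM to 20 nM compound in 0.1% or 0.5% DMSO. Residual HiBit luminescence normalised to DMSO and fitted with a 4-parameter model for DC50 and Dmax. Points with ≥50% viability loss (alamar blue) excluded.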

HiBit-KRAS^G12C [2] = target: T1, HiBit-KRAS^G12C; test: HiBit degradation assay in MiaPaCa-2 HiBit-KRas^G12C cells; format: cell-based; conditions: 24 hours; for Dmax: maximum degradation
In short: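 MiaPaCa-2 cells with CRISPR N-terminal HiBit knock-in on one endogenous KRAS^G12C allele, treated 24 hours at 37° C with compound titrated 10 μM to 20 nM (0.1% or 0.5% DMSO). Lytic HiBit luminescence normalized to DMSO, 4-parameter fit giving DC50 and Dmax; points cytotoxic to […] cells by alamar blue excluded.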

[3] = SW1573, SW1573 HiBit-KRas^G12C, 0.5% DMSO, read-out: KRas^G12C-HiBiT (SW1573; 0.5% DMSO) Dmax**
[4] = read-out: KRas^G12C-HiBiT (SW1573; 0.5% DMSO) IC50***, SW1573 HiBit-KRas^G12C, 0.5% DMSO
[5] = MIA PaCa-2, MiaPaCa-2 HiBit-KRas^G12C cells, 0.5% DMSO, read-out: KRas^G12C-HiBiT (MiaPaCa; 0.5% DMSO) DMax
[6] = read-out: KRas^G12C-HiBiT (MiaPaCa; 0.5% DMSO) IC50, MiaPaCa-2 HiBit-KRas^G12C cells, 0.5% DMSO
[7] = SW1573, read-out: KRas^G12C-HiBit (SW1573; 0.1% DMSO) Dmax**, SW1573 HiBit-KRas^G12C, 0.1% DMSO
[8] = SW1573 HiBit-KRas^G12C, 0.1% DMSO, read-out: KRas^G12C-HIBit (SW1573; 0.1% DMSO) DC50*
[9] = read-out: KRas^G12C-HiBiT (MiaPaCa; 0.1% DMSO) IC50, MiaPaCa-2 HiBit-KRas^G12C cells, 0.1% DMSO
[10] = SW1573, SW1573 HiBit-KRas^G12C, 0.1% DMSO, read-out: KRas^G12C-HiBit (SW1573; 0.1% DMSO) Dmax**
[11] = MIA PaCa-2, MiaPaCa-2 HiBit-KRas^G12C cells, 0.1% DMSO, read-out: KRas^G12C-HiBiT (MiaPaCa; 0.1% DMSO) DMax

T1 sequence (P01116 1-186 isoform P01116-2 G12C limits assumed): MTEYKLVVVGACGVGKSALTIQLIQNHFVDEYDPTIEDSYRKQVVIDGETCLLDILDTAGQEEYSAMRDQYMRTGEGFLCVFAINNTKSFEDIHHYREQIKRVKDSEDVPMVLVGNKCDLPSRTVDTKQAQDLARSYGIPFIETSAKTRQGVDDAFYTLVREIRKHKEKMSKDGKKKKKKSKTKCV

| Dmax (HiBit-KRAS^G12C [1]; [3]) [%] | DC50 (HiBit-KRAS^G12C [1]; [4]) [nM] | Dmax (HiBit-KRAS^G12C [2]; [5]) [%] | DC50 (HiBit-KRAS^G12C [2]; [6]) [nM] | Dmax (HiBit-KRAS^G12C [1]; [10]) [%] | Structure (SMILES) | Dmax (HiBit-KRAS^G12C [1]; [7]) [%] | DC50 (HiBit-KRAS^G12C [1]; [8]) [nM] | DC50 (HiBit-KRAS^G12C [2]; [9]) [nM] | Dmax (HiBit-KRAS^G12C [1]; SW1573, read-out: KRas^G12C-HiBiT (SW1573; 0.5% DMSO) Dmax**, SW1573 HiBit-KRas^G12C, 0.5% DMSO) [%] | Dmax (HiBit-KRAS^G12C [2]; MIA PaCa-2, read-out: KRas^G12C-HiBiT (MiaPaCa; 0.1% DMSO) DMax, MiaPaCa-2 HiBit-KRas^G12C cells, 0.1% DMSO) [%] | Dmax (HiBit-KRAS^G12C [2]; MIA PaCa-2, read-out: KRas^G12C-HiBiT (MiaPaCa; 0.5% DMSO) DMax, MiaPaCa-2 HiBit-KRas^G12C cells, 0.5% DMSO) [%] | Dmax (HiBit-KRAS^G12C [2]; [11]) [%] |
| --- | --- | --- | --- | --- | --- | --- | --- | --- | --- | --- | --- | --- |
| > 70 | 100 to 1000 | > 70 | 100 to 1000 | – | C=CC(=O)N1CCN(c2nc(OCCN3CCC(COCC(=O)N[C@H](C(=O)N4C[C@H](O)C[C@H]4C(=O)N[C@@H](C)c4ccc(-c5scnc5C)cc4)C(C)(C)C)CC3)nc3c(F)c(-c4nc(N)cc(C)c4C(F)(F)F)c(Cl)cc23)C[C@@H]1CC#N [Compound 115, (2S,4R)-1-[(2S)-2-[2-({1-[2-({7-[6-amino-4-methyl-3-(trifluoromethyl)pyridin-2-yl]-6-chloro-4-[(3S)-3-(cyanomethyl)-4-(prop-2-enoyl)piperazin-1-yl]-8-fluoroquinazolin-2-yl}oxy)ethyl]piperidin-4-yl}methoxy)acetamido]-3,3-dimethylbutanoyl]-4-hydroxy-N-[(1S)-1-[4-(4-methyl-1,3-thiazol-5-yl)phenyl]ethyl]pyrrolidine-2-carboxamide] | – | – | – | – | – | – | – |
| – | – | – | – | – | C=CC(=O)N1CCN(c2nc(O[C@H](C)CN3CCN(CCCN4CCN(CC(=O)N[C@H](C(=O)N5C[C@H](O)C[C@H]5C(=O)N[C@@H](C)c5ccc(-c6scnc6C)cc5)C(C)(C)C)CC4)CC3)nc3c(F)c(-c4cc(O)cc5ccccc45)c(Cl)cc23)CC1 [Compound 49, (2S,4R)-1-[(2S)-2-{2-[4-(3-{4-[(2R)-2-{[6-chloro-8-fluoro-7-(3-hydroxynaphthalen-1-yl)-4-[4-(prop-2-enoyl)piperazin-1-yl]quinazolin-2-yl]oxy}propyl]piperazin-1-yl}propyl)piperazin-1-yl]acetamido}-3,3-dimethylbutanoyl]-4-hydroxy-N-[(1S)-1-[4-(4-methyl-1,3-thiazol-5-yl)phenyl]ethyl]pyrrolidine-2-carboxamide] | < 35 | 100 to 1000 | > 1000 | – | – | – | – |
| 35 to 70 | 100 to 1000 | 35 to 70 | > 1000 | – | C=CC(=O)N1CCN(c2nc(OCCN3CC[C@H](COCC(=O)N[C@H](C(=O)N4C[C@H](O)C[C@H]4C(=O)N[C@@H](C)c4ccc(-c5scnc5C)cc4)C(C)(C)C)C3)nc3c(F)c(-c4cc(O)cc5ccccc45)c(Cl)cc23)C[C@@H]1CC#N [Compound 142, (2S,4R)-1-[(2S)-2-(2-{[(3S)-1-[2-({6-chloro-4-[(3S)-3-(cyanomethyl)-4-(prop-2-enoyl)piperazin-1-yl]-8-fluoro-7-(3-hydroxynaphthalen-1-yl)quinazolin-2-yl}oxy)ethyl]pyrrolidin-3-yl]methoxy}acetamido)-3,3-dimethylbutanoyl]-4-hydroxy-N-[(1S)-1-[4-(4-methyl-1,3-thiazol-5-yl)phenyl]ethyl]pyrrolidine-2-carboxamide] | – | – | – | – | – | – | – |
| – | – | – | – | – | C=CC(=O)N1CCN(c2nc(O[C@H](C)CN3CCC(CCCOC4CN(CC(=O)N[C@H](C(=O)N5C[C@H](O)C[C@H]5C(=O)N[C@@H](C)c5ccc(-c6scnc6C)cc5)C(C)(C)C)C4)CC3)nc3c(F)c(-c4cc(O)cc5ccccc45)c(Cl)cc23)CC1 [Compound 48, (2S,4R)-1-[(2S)-2-{2-[3-(3-{1-[(2R)-2-{[6-chloro-8-fluoro-7-(3-hydroxynaphthalen-1-yl)-4-[4-(prop-2-enoyl)piperazin-1-yl]quinazolin-2-yl]oxy}propyl]piperidin-4-yl}propoxy)azetidin-1-yl]acetamido}-3,3-dimethylbutanoyl]-4-hydroxy-N-[(1S)-1-[4-(4-methyl-1,3-thiazol-5-yl)phenyl]ethyl]pyrrolidine-2-carboxamide] | < 35 | 100 to 1000 | > 1000 | – | – | – | – |
| 35 to 70 | > 1000 | – | > 1000 | < 35 | C=CC(=O)N1CCN(c2nc(O[C@H](C)CN3CCC(OCCOCC(=O)N[C@H](C(=O)N4C[C@H](O)C[C@H]4C(=O)N[C@@H](C)c4ccc(-c5scnc5C)cc4)C(C)(C)C)CC3)nc3c(F)c(-c4c(O)cccc4F)c(Cl)cc23)CC1 [Compound 61, (2S,4R)-1-[(2S)-2-{2-[2-({1-[(2R)-2-{[6-chloro-8-fluoro-7-(2-fluoro-6-hydroxyphenyl)-4-[4-(prop-2-enoyl)piperazin-1-yl]quinazolin-2-yl]oxy}propyl]piperidin-4-yl}oxy)ethoxy]acetamido}-3,3-dimethylbutanoyl]-4-hydroxy-N-[(1S)-1-[4-(4-methyl-1,3-thiazol-5-yl)phenyl]ethyl]pyrrolidine-2-carboxamide] | – | 100 to 1000 | > 1000 | – | – | – | – |
| – | – | – | – | – | C=CC(=O)N1CCN(c2nc(O[C@H](C)CN3CCN(C4CN(CC(=O)N[C@H](C(=O)N5C[C@H](O)C[C@H]5C(=O)N[C@@H](C)c5ccc(-c6scnc6C)cc5)C(C)(C)C)C4)CC3)nc3c(F)c(-c4cc(O)cc5ccccc45)c(Cl)cc23)CC1 [Compound 40, (2S,4R)-1-[(2S)-2-[2-(3-{4-[(2R)-2-{[6-chloro-8-fluoro-7-(3-hydroxynaphthalen-1-yl)-4-[4-(prop-2-enoyl)piperazin-1-yl]quinazolin-2-yl]oxy}propyl]piperazin-1-yl}azetidin-1-yl)acetamido]-3,3-dimethylbutanoyl]-4-hydroxy-N-[(1S)-1-[4-(4-methyl-1,3-thiazol-5-yl)phenyl]ethyl]pyrrolidine-2-carboxamide] | 35 to 70 | > 1000 | 100 to 1000 | 35 to 70 | < 35 | < 35 | – |
| 35 to 70 | – | 35 to 70 | – | 35 to 70 | C=CC(=O)N1CCN(c2nc(OCCN3CCC(OCCOCC(=O)N[C@H](C(=O)N4C[C@H](O)C[C@H]4C(=O)N[C@@H](C)c4ccc(-c5scnc5C)cc4)C(C)(C)C)CC3)nc3c(F)c(-c4cc(O)cc5ccccc45)c(Cl)cc23)CC1 [Compound 66, (2S,4R)-1-[(2S)-2-[2-(2-{[1-(2-{[6-chloro-8-fluoro-7-(3-hydroxynaphthalen-1-yl)-4-[4-(prop-2-enoyl)piperazin-1-yl]quinazolin-2-yl]oxy}ethyl)piperidin-4-yl]oxy}ethoxy)acetamido]-3,3-dimethylbutanoyl]-4-hydroxy-N-[(1S)-1-[4-(4-methyl-1,3-thiazol-5-yl)phenyl]ethyl]pyrrolidine-2-carboxamide] | – | 100 to 1000 | – | – | – | – | < 35 |
| – | 100 to 1000 | – | > 1000 | – | C=C(F)C(=O)N1CCN(c2nc(OCCN3CCC4(CC3)CN(c3cc([C@@H](C(=O)N5C[C@H](O)C[C@H]5C(=O)N[C@@H](C)c5ccc(-c6ccnn6C)cc5)C(C)C)on3)C4)nc3c(F)c(-c4cc(O)cc5ccccc45)c(Cl)cc23)C[C@@H]1CC#N (atropisomer, axis not shown) [Compound 103, (2S,4R)-1-[(2S)-2-(3-{7-[2-({6-chloro-4-[(3S)-3-(cyanomethyl)-4-(2-fluoroprop-2-enoyl)piperazin-1-yl]-8-fluoro-7-(3-hydroxynaphthalen-1-yl)quinazolin-2-yl}oxy)ethyl]-2,7-diazaspiro[3.5]nonan-2-yl}-1,2-oxazol-5-yl)-3-methylbutanoyl]-4-hydroxy-N-[(1S)-1-[4-(1-methyl-1H-pyrazol-5-yl)phenyl]ethyl]pyrrolidine-2-carboxamide] | – | – | – | – | – | – | – |

| Structure (SMILES) | Dmax (HiBit-KRAS^G12C [1]; [3]) [%] | DC50 (HiBit-KRAS^G12C [1]; [4]) [nM] | Dmax (HiBit-KRAS^G12C [2]; [5]) [%] | DC50 (HiBit-KRAS^G12C [2]; [6]) [nM] | Dmax (HiBit-KRAS^G12C [1]; [10]) [%] | Dmax (HiBit-KRAS^G12C [1]; [7]) [%] | DC50 (HiBit-KRAS^G12C [1]; [8]) [nM] | DC50 (HiBit-KRAS^G12C [2]; [9]) [nM] | Dmax (HiBit-KRAS^G12C [1]; SW1573, read-out: KRas^G12C-HiBiT (SW1573; 0.5% DMSO) Dmax**, SW1573 HiBit-KRas^G12C, 0.5% DMSO) [%] | Dmax (HiBit-KRAS^G12C [2]; MIA PaCa-2, read-out: KRas^G12C-HiBiT (MiaPaCa; 0.1% DMSO) DMax, MiaPaCa-2 HiBit-KRas^G12C cells, 0.1% DMSO) [%] | Dmax (HiBit-KRAS^G12C [2]; MIA PaCa-2, read-out: KRas^G12C-HiBiT (MiaPaCa; 0.5% DMSO) DMax, MiaPaCa-2 HiBit-KRas^G12C cells, 0.5% DMSO) [%] | Dmax (HiBit-KRAS^G12C [2]; [11]) [%] |
| --- | --- | --- | --- | --- | --- | --- | --- | --- | --- | --- | --- | --- |
| C=CC(=O)N1CCN(c2nc(OCCN3CCC(COCC(=O)N[C@H](C(=O)N4C[C@H](O)C[C@H]4C(=O)N[C@@H](C)c4ccc(-c5scnc5C)cc4)C(C)(C)C)CC3)nc3c(F)c(-c4cc(O)cc5ccccc45)c(Cl)cc23)CC1 [Compound 63, (2S,4R)-1-[(2S)-2-(2-{[1-(2-{[6-chloro-8-fluoro-7-(3-hydroxynaphthalen-1-yl)-4-[4-(prop-2-enoyl)piperazin-1-yl]quinazolin-2-yl]oxy}ethyl)piperidin-4-yl]methoxy}acetamido)-3,3-dimethylbutanoyl]-4-hydroxy-N-[(1S)-1-[4-(4-methyl-1,3-thiazol-5-yl)phenyl]ethyl]pyrrolidine-2-carboxamide] | > 70 | – | 35 to 70 | – | 35 to 70 | – | 100 to 1000 | – | – | – | – | 35 to 70 |
